Measured values published in patent US11053204B2, “Pyrimidinyloxy benzene derivatives as herbicides” (FMC Corporation, priority 2015, dated 2021).

What was measured:
Type in all cases: in vivo
[1] = tested on: barnyardgrass (Echinochloa crus-galli); assay: Test B flooded paddy test, plant response rating; settings: Echinochloa crus-galli, 312 h; 250 g ai/ha; Flood; scale of 0 to 100 where 0 is no effect and 100 is complete control; 13 to 15 days
How it was run: (§1)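 Pots were flooded to 3 cm above the soil surface at treatment, compound applied directly to the paddy water, and that depth held throughout. Plants were kept in a greenhouse for 13 to 15 days, then visually rated against untreated controls.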

[2] = tested on: sedge, umbrella (small-flower umbrella sedge, Cyperus difformis); assay: Test B flooded paddy test, plant response rating; settings: Cyperus difformis, 312 h; 250 g ai/ha; Flood; scale of 0 to 100 where 0 is no effect and 100 is complete control; 13 to 15 days
How it was run: as §1

rice (Oryza sativa) = assay: Test B flooded paddy test, plant response rating; settings: Oryza sativa, 312 h; 250 g ai/ha; Flood; scale of 0 to 100 where 0 is no effect and 100 is complete control; 13 to 15 days
How it was run: as §1

[3] = tested on: ducksalad (Heteranthera limosa); assay: Test B flooded paddy test, plant response rating; settings: Heteranthera limosa, 312 h; 250 g ai/ha; Flood; scale of 0 to 100 where 0 is no effect and 100 is complete control; 13 to 15 days
How it was run: as §1

[4] = tested on: waterhemp (common waterhemp, Amaranthus rudis); assay: Test C postemergence, plant response rating; settings: for Plant response rating, Waterhemp: scale 0 to 100; for Waterhemp plant response rating: scale 0 to 100 (0 no effect, 100 complete control)
How it was run: (§2)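 Preemergence: seeds sown in loam–sand blend or silt loam and sprayed with test chemicals in a non-phytotoxic surfactant-containing solvent. Postemergence: potted plants at 2–18 cm (1–4-leaf stage) sprayed with the same formulation. After 13–15 d in greenhouse, visual rating versus controls on 0 (no effect) to 100 (complete control) scale.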

[5] = tested on: velvetleaf (Abutilon theophrasti); assay: Test C postemergence, plant response rating; settings: Abutilon theophrasti, post-emergence
How it was run: as §2

[6] = tested on: oilseed rape (Brassica napus); assay: Test C postemergence, plant response rating; settings: Brassica napus, post-emergence
How it was run: as §2

[7] = tested on: barnyardgrass (Echinochloa crus-galli); assay: Test C postemergence, plant response rating; settings: Echinochloa crus-galli, post-emergence
How it was run: as §2

kochia (Kochia scoparia) [8] = assay: Test C postemergence, plant response rating; settings: Bassia scoparia, post-emergence
How it was run: as §2

[9] = tested on: morningglory (Ipomoea coccinea); assay: Test C postemergence, plant response rating; settings: Ipomoea, post-emergence
How it was run: as §2

[10] = tested on: ragweed (common ragweed, Ambrosia elatior); assay: Test C postemergence, plant response rating; settings: Ambrosia artemisiifolia, post-emergence
How it was run: as §2

[11] = tested on: giant foxtail (Setaria faberii); assay: Test A postemergence, visual injury rating; settings: Setaria faberi, post-emergence, 240 h, 0 is no effect, 100 is complete control, read-out: Foxtail, Giant plant response rating (0 to 100 scale)
How it was run: (§3)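 Pre- and postemergence greenhouse screen. Soil: loam + sand. Spray carrier: solvent mixture, non-phytotoxic, with surfactant. Post timing at 1–2 leaves, height 2–10 cm. Readout: visual injury on a 0–100 scale roughly 10 days after application, untreated plants as reference.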

[12] = tested on: wheat (Triticum aestivum); assay: Test A postemergence, visual injury rating; settings: Triticum aestivum, post-emergence, 240 h, 0 is no effect, 100 is complete control, read-out: Wheat plant response rating (0 to 100 scale)
How it was run: as §3

kochia (Kochia scoparia) [13] = assay: Test A postemergence, visual injury rating; settings: Bassia scoparia, post-emergence, 240 h, 0 is no effect, 100 is complete control, read-out: Kochia plant response rating (0 to 100 scale)
How it was run: as §3

[14] = tested on: Italian ryegrass (Lolium multiflorum); assay: Test A postemergence, visual injury rating; settings: Lolium multiflorum, post-emergence, 240 h, 0 is no effect, 100 is complete control, read-out: Ryegrass, Italian plant response rating (0 to 100 scale)
How it was run: as §3

[15] = tested on: ragweed (common ragweed, Ambrosia elatior); assay: Test A postemergence, visual injury rating; settings: Ambrosia artemisiifolia, post-emergence, 240 h, 0 is no effect, 100 is complete control, read-out: Ragweed plant response rating (0 to 100 scale)
How it was run: as §3

corn (Zea mays) = assay: Test A postemergence, visual injury rating; settings: Zea mays, post-emergence, 240 h, 0 is no effect, 100 is complete control, read-out: Corn plant response rating (0 to 100 scale)
How it was run: as §3

[16] = tested on: pigweed (Amaranthus retroflexus); assay: Test A postemergence, visual injury rating; settings: Amaranthus retroflexus, post-emergence, 240 h, 0 is no effect, 100 is complete control, read-out: Pigweed plant response rating (0 to 100 scale)
How it was run: as §3

[17] = 125 g ai/ha, scale 0 to 100 (0 no effect, 100 complete control)
[18] = 62 g ai/ha, scale 0 to 100 (0 no effect, 100 complete control)

What does the source list for `C=CCCOC(=O)c1c(Br)cccc1Oc1ncc(Cl)cn1` [Compound 21, 3-buten-1-yl 2-bromo-6-[(5-chloro-2-pyrimidinyl)oxy]benzoate]?
pest or weed control at 250 g/ha [1]: 30%; pest or weed control at 250 g/ha [2]: 100%; plant injury at 250 g/ha (rice (Oryza sativa)): 0%; pest or weed control at 250 g/ha [3]: 70%; Plant response rating, Waterhemp ([4]; 16 g ai/ha): 75; Plant response rating, Waterhemp ([4]; 31 g ai/ha): 85; Waterhemp plant response rating ([4]; 62 g ai/ha): 90; Waterhemp plant response rating ([4]; 125 g ai/ha): 85; pest or weed control at 16 g/ha ([5]; 16 g ai/ha, scale 0 to 100): 40%; pest or weed control at 31 g/ha ([5]; 31 g ai/ha, scale 0 to 100): 60%; pest or weed control at 62 g/ha ([5]; 62 g ai/ha, scale 0 to 100 (0 no effect, 100 complete control), read-out: Velvetleaf plant response rating): 60%; pest or weed control at 125 g/ha [5, 17]: 70%; plant injury at 16 g/ha ([6]; 16 g ai/ha, scale 0 to 100): 30%; plant injury at 31 g/ha ([6]; 31 g ai/ha, scale 0 to 100): 40%; plant injury at 62 g/ha [6, 18]: 50%; plant injury at 125 g/ha [6, 17]: 30%; pest or weed control at 16 g/ha ([7]; 16 g ai/ha, scale 0 to 100): 10%; pest or weed control at 31 g/ha ([7]; 31 g ai/ha, scale 0 to 100): 10%; pest or weed control at 62 g/ha [7, 18]: 20%; pest or weed control at 125 g/ha [7, 17]: 20%; pest or weed control at 16 g/ha (kochia (Kochia scoparia) [8]; 16 g ai/ha, scale 0 to 100): 60%; pest or weed control at 31 g/ha (kochia (Kochia scoparia) [8]; 31 g ai/ha, scale 0 to 100): 50%; pest or weed control at 62 g/ha (kochia (Kochia scoparia) [8]; [18]): 90%; pest or weed control at 125 g/ha (kochia (Kochia scoparia) [8]; [17]): 90%; pest or weed control at 16 g/ha ([9]; 16 g ai/ha, scale 0 to 100): 10%; pest or weed control at 31 g/ha ([9]; 31 g ai/ha, scale 0 to 100): 25%; pest or weed control at 62 g/ha [9, 18]: 40%; pest or weed control at 125 g/ha [9, 17]: 70%; pest or weed control at 16 g/ha ([10]; 16 g ai/ha, scale 0 to 100): 10%; pest or weed control at 31 g/ha ([10]; 31 g ai/ha, scale 0 to 100): 10%; pest or weed control at 62 g/ha [10, 18]: 45%; pest or weed control at 125 g/ha [10, 17]: 55%; pest or weed control at 125 g/ha ([11]; 125 g ai/ha): 70%; pest or weed control at 500 g/ha ([11]; 500 g ai/ha): 100%; plant injury at 125 g/ha ([12]; 125 g ai/ha): 0%; plant injury at 500 g/ha ([12]; 500 g ai/ha): 40%; pest or weed control at 125 g/ha (kochia (Kochia scoparia) [13]; 125 g ai/ha): 90%; pest or weed control at 500 g/ha (kochia (Kochia scoparia) [13]; 500 g ai/ha): 100%; pest or weed control at 125 g/ha ([14]; 125 g ai/ha): 0%; pest or weed control at 500 g/ha ([14]; 500 g ai/ha): 90%; pest or weed control at 125 g/ha ([15]; 125 g ai/ha): 0%; pest or weed control at 500 g/ha ([15]; 500 g ai/ha): 40%; plant injury at 125 g/ha (corn (Zea mays); 125 g ai/ha): 30%; plant injury at 500 g/ha (corn (Zea mays); 500 g ai/ha): 60%; pest or weed control at 125 g/ha ([16]; 125 g ai/ha): 80%; pest or weed control at 500 g/ha ([16]; 500 g ai/ha): 100%
